Measured values published in PubChem BioAssay (NCI).
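1) Cells in 96-well plates. 2) Compound, 48 h, 5 concentrations. 3) Linear interpolation between surrounding doses. 4) Unreached endpoint = highest concentration. TGI: concentration producing complete growth inhibition.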

Tests used:
Test in all cases: NCI tumour cell line growth inhibition, 48 h
SR leukemia = test system: SR leukemia
LOX IMVI melanoma = test system: LOX IMVI melanoma
HS 578T breast = test system: HS 578T breast
HL-60(TB) leukemia = test system: HL-60(TB) leukemia
M14 melanoma = test system: M14 melanoma
MDA-MB-231 breast = test system: MDA-MB-231 breast
MCF7 breast = test system: MCF7 breast
SK-MEL-28 melanoma = test system: SK-MEL-28 melanoma
UACC-62 melanoma = test system: UACC-62 melanoma
SF-539 CNS = test system: SF-539 CNS
BT-549 breast = test system: BT-549 breast
OVCAR-5 ovarian = test system: OVCAR-5 ovarian
A549 NSCLC = test system: A549 NSCLC
NCI-H226 lung = test system: NCI-H226 lung
T-47D breast = test system: T-47D breast
COLO 205 colon = test system: COLO 205 colon
MDA-N = test system: MDA-N
CCRF-CEM leukemia = test system: CCRF-CEM leukemia
MDA-MB-435 = test system: MDA-MB-435
RPMI-8226 leukemia = test system: RPMI-8226 leukemia
HCT-116 colon = test system: HCT-116 colon
KM12 colon = test system: KM12 colon
SNB-75 CNS = test system: SNB-75 CNS
UO-31 renal = test system: UO-31 renal
HCC-2998 colon = test system: HCC-2998 colon
SK-OV-3 ovarian = test system: SK-OV-3 ovarian
SW-620 colon = test system: SW-620 colon
RXF 393 renal = test system: RXF 393 renal
NCI/ADR-RES ovarian = test system: NCI/ADR-RES ovarian
SF-268 CNS = test system: SF-268 CNS
EKVX NSCLC = test system: EKVX NSCLC
U251 CNS = test system: U251 CNS
OVCAR-3 ovarian = test system: OVCAR-3 ovarian
NCI-H522 lung = test system: NCI-H522 lung
CAKI-1 renal = test system: CAKI-1 renal
OVCAR-4 ovarian = test system: OVCAR-4 ovarian
SK-MEL-2 melanoma = test system: SK-MEL-2 melanoma
SK-MEL-5 melanoma = test system: SK-MEL-5 melanoma
MOLT-4 leukemia = test system: MOLT-4 leukemia
IGROV1 ovarian = test system: IGROV1 ovarian
K-562 leukemia = test system: K-562 leukemia
HT29 colon = test system: HT29 colon
HCT-15 colon = test system: HCT-15 colon
NCI-H23 lung = test system: NCI-H23 lung
HOP-62 NSCLC = test system: HOP-62 NSCLC
OVCAR-8 ovarian = test system: OVCAR-8 ovarian
NCI-H460 lung = test system: NCI-H460 lung
UACC-257 melanoma = test system: UACC-257 melanoma
SF-295 CNS = test system: SF-295 CNS
786-0 renal = test system: 786-0 renal
ACHN renal = test system: ACHN renal
HOP-92 NSCLC = test system: HOP-92 NSCLC
DU-145 prostate = test system: DU-145 prostate
MALME-3M melanoma = test system: MALME-3M melanoma
SNB-19 CNS = test system: SNB-19 CNS
PC-3 prostate = test system: PC-3 prostate
TK-10 renal = test system: TK-10 renal
A498 renal = test system: A498 renal
SN12C renal = test system: SN12C renal

Clc1cc(OCc2nn3c(Cc4ccccc4)nnc3s2)c(Cl)cc1OCc1nn2c(Cc3ccccc3)nnc2s1
TGI (SR leukemia): 10.4 µM | TGI (LOX IMVI melanoma): > 100 µM | TGI (HS 578T breast): > 100 µM | TGI (HL-60(TB) leukemia): > 100 µM | TGI (M14 melanoma): > 100 µM | TGI (MDA-MB-231 breast): > 100 µM | TGI (MCF7 breast): > 100 µM | TGI (SK-MEL-28 melanoma): > 100 µM | TGI (UACC-62 melanoma): > 100 µM | TGI (SF-539 CNS): > 100 µM | TGI (BT-549 breast): 95.9 µM | TGI (OVCAR-5 ovarian): > 100 µM | TGI (A549 NSCLC): > 100 µM | TGI (NCI-H226 lung): > 100 µM | TGI (T-47D breast): > 100 µM | TGI (COLO 205 colon): > 100 µM | TGI (MDA-N): > 100 µM | TGI (CCRF-CEM leukemia): > 100 µM | TGI (MDA-MB-435): > 100 µM | TGI (RPMI-8226 leukemia): 30.1 µM | TGI (HCT-116 colon): > 100 µM | TGI (KM12 colon): > 100 µM | TGI (SNB-75 CNS): 9.97 µM | TGI (UO-31 renal): > 100 µM | TGI (HCC-2998 colon): > 100 µM | TGI (SK-OV-3 ovarian): 82.1 µM | TGI (SW-620 colon): > 100 µM | TGI (RXF 393 renal): 75.4 µM | TGI (NCI/ADR-RES ovarian): > 100 µM | TGI (SF-268 CNS): > 100 µM | TGI (EKVX NSCLC): > 100 µM | TGI (U251 CNS): > 100 µM | TGI (OVCAR-3 ovarian): > 100 µM | TGI (NCI-H522 lung): > 100 µM | TGI (CAKI-1 renal): > 100 µM | TGI (OVCAR-4 ovarian): > 100 µM | TGI (SK-MEL-2 melanoma): > 100 µM | TGI (SK-MEL-5 melanoma): > 100 µM | TGI (MOLT-4 leukemia): 19.8 µM | TGI (IGROV1 ovarian): > 100 µM | TGI (K-562 leukemia): 24.2 µM | TGI (HT29 colon): > 100 µM | TGI (HCT-15 colon): > 100 µM | TGI (NCI-H23 lung): > 100 µM | TGI (HOP-62 NSCLC): > 100 µM | TGI (OVCAR-8 ovarian): > 100 µM | TGI (NCI-H460 lung): > 100 µM | TGI (UACC-257 melanoma): > 100 µM | TGI (SF-295 CNS): > 100 µM | TGI (786-0 renal): > 100 µM | TGI (ACHN renal): > 100 µM | TGI (HOP-92 NSCLC): 61.2 µM | TGI (DU-145 prostate): > 100 µM | TGI (MALME-3M melanoma): > 100 µM | TGI (SNB-19 CNS): 95.8 µM | TGI (PC-3 prostate): > 100 µM | TGI (TK-10 renal): > 100 µM | TGI (A498 renal): 88.5 µM | TGI (SN12C renal): > 100 µM
